{
  "source": "patent US6569846B1",
  "about": "“Palladium-substituted bacteriochlorophyll derivatives and use thereof” (Yeda Research and Development Co. Ltd., priority 1998, dated 2003)",
  "key": {"[1]": {"test": "Stability of Pd-BPheid solutions by HPLC profile", "type": "physicochemical", "protocol": "A reverse phase HPLC method was developed to characterize the impurity profile and quantify the Palladium-BPheid.\nSolutions of Pd-BPheid stored in acetone at −20° C. were stable for at least 2-month period."}, "[2]": {"tested_on": "L1210 murine leukemia cells", "test": "In vitro phototoxicity on L1210 cells (MTT)", "type": "cell-based", "conditions": "1 μM, 30 min at 37° C.", "protocol": "(§1) (i) Cell lines. The murine leukemia cell line (L1210) was maintained in suspension culture using Fischer's medium supplemented with 10% horse serum, 1 mM glutamine, 1 mM mercaptoethanol and gentamicin. The RIF (Radiation induced Fibrosarcoma) tumor was maintained as specified by Twentyman et al. (1980, “A new mouse tumor model system (RIF-1) for comparison of end-point studies”, J. Natl. Cancer Inst., 64, 595-604). Cultures were grown in Weymouth's medium containing 10% fetal calf serum and gentamycin.\n(ii) In vitro phototoxicity. For studies on phototoxicity involving L1210 and RIF cells, light was provided by a 600 watt quartz-halogen source filtered with 10 cm of water and a 850 nm cut-off filter to remove IR. […] […] The cells were then washed free from the sensitizer, and transferred to fresh media. Irradiations were carried out at 10° C. For some studies, the cells were then labeled with fluorescent probes and sites of photodamage were assessed. In other studies, the cells were then incubated for 60 min at 37° C. in fresh medium to allow apoptosis to proceed. Viability studies were carried out using 96-well plates and a 72-hour MTT assay, in quadruplicate.\n(§2) (iii) Cell Viability. Cell survival was assessed by the MTT reaction carried out 3 days after plating of 1,000-50,000 cells in 96 well plates. […] Absorbance at x nm was determined with a BioRad Plate reader. […]"}, "[3]": {"tested_on": "RIF (Radiation induced Fibrosarcoma) line", "test": "In vitro phototoxicity on RIF cells (MTT)", "type": "cell-based, mouse", "protocol": "as §1\n(ii) In vitro phototoxicity. For studies on phototoxicity involving L1210 and RIF cells, light was provided by a 600 watt quartz-halogen source filtered with 10 cm of water and a 850 nm cut-off filter to remove IR. The bandwidth was further confined to 660±5 nm by an interference filter (Oriel). Cells in suspension (L1210) or adhering to 24 mm diameter cover slips were incubated in growth medium (with 20 mM HEPES pH 7 replacing NaHCO3 for added buffering capacity) for 15 min in the presence of specified levels of sensitizers. […] For some studies, the cells were then labeled with fluorescent probes and sites of photodamage were assessed. […]\nas §2"}, "[4]": {"tested_on": "HDL, LDL, Albumin fractions of human serum", "test": "Plasma lipoprotein binding (density-gradient centrifugation)", "type": "in vitro ADME", "conditions": "3 μM, 30 min at 37° C.", "protocol": "(iv) Lipoprotein binding: Binding of Pd-BPheid to protein and lipoprotein compound of control human plasma was determined. Incubation of 250 μl plasma sample with 3 μM of the compound for 30 min at 37° C. Lipoprotein and protein components were then separated by density-gradient centrifugator. The gradients were fractionated, fractions diluted into 3 ml of 10 mM Triton X-100 detergent or of fluorescence at 750-800 nm determined upon excitation at 400 nm."}, "[5]": {"tested_on": "HT29 human colon adenocarcinoma", "test": "In vivo phototoxicity on grafted HT29 tumors (tumoral index)", "set-up": "species or system Swiss nude mice", "conditions": "for tumor growth as compared to controls / duration of decrease of tumor index: 15 mg/kg i.v., 763 nm", "protocol": "Animal and tumor model: Solid tumor tissue (diameter 2 cm) removed from donor mouse immediately after death was mechanically crushed in 1 ml of 0.9% saline solution and the solution (0.1 ml) was injected s.c. into one hind leg of each mouse. Mice were included for experiments when the tumor diameter was 8-10 mm. Tumors were grafted s.c. in 8-week aged Swiss nude mice 10 days before experiment.\nPhototoxic studies: 0.15 ml Pd-BPheid was injected i.v. at 15 mg/kg. Mice were anesthetized with thiopental at 40 mg/kg just before irradiation. At 30 min, 1 h, 4 h or 24 h after injection, mice were irradiated with a titanium sapphire laser at 300 mW/cm^2, mean diameter were measured to adjust time irradiation to obtain 200 or 300 J/cm^2. Control mice not injected with Pd-BPheid were also irradiated in same conditions. The tumor growth delay induced by PDT was analyzed by equivalence with tests realized in experimental radiotherapy. For in vivo studies and for each separate experiment, all results were the mean of 2 or 3 separate experiments and for each separate experiment, 2 mice were used for each experimental condition.\nConcerning tumoral growth studies, results are expressed as tumoral index variations with reference (=1) corresponding to tumoral index from non-treated cells. The tumoral index was calculated as follows:\nTumoral index=(largest tumoral diameter+perpendicularly opposite diameter)/2."}, "M2R mouse melanoma cells": {"tested_on": "M2R mouse melanoma cells", "test": "Phototoxicity on M2R cells (Example 11, [3H]-thymidine incorporation)", "type": "cell-based", "protocol": "For phototoxicity analysis cells (1×10^4 cells/well) were cultured in 96-well plates for 24 hours to an approximate density of 2×10^4 cells/well. Pigments were dissolved directly in culture medium or in ethanol 95% and further diluted in culture medium to a final concentration of 1% ethanol. The diluted pigments were added and the cells were incubated in the dark for four hours at 37° C. Prior to illumination, the cells were washed once and replaced with fresh culture medium. The plates were then illuminated from the bottom for 10 minutes at room temperature and placed in the culture incubator at 37° C. in the dark. Cell survival was determined 24 hours later. The following control systems were used: Dark control—untreated cells kept in the dark; Light control—cells not treated with sensitizer that were illuminated; Dark toxicity—cells treated with pigment but kept in the dark. Cell survival was determined by [^3H]-thymidine incorporation as described earlier (WO 97/19081). […]\n(iii) Phototoxicity study: Analysis was performed with the same protocol as described above (Example 10) with the following changes: Pd-BPheid was dissolved directly in medium containing 10% serum and then added to the cells. Survival of M2R cells was determined by [^3H]-thymidine incorporation and that of human HT29 cells with the MTT assay (Merlin J L et al., 1992 Eur. J. Cancer 28A: 1452-1458)."}},
  "data": [
    {"smiles": "CC[C@H]1C2=NC(=Cc3c(C(C)=O)c(C)c4[n]3[Pd][n]3c(c(C)c5c3=C(C3=NC(=C4)[C@@H](C)[C@@H]3CCC(=O)O)[C@@H](C(=O)OC)C5=O)=C2)[C@@H]1C", "note": "[Pd-BPheid, Pd-bacteriopheophorbide a]", "values": [
      {"measurement": "change in the HPLC profile", "setting": "[1]; stock solution at room temperature for 18 hours", "result": "no change in the HPLC profile"},
      {"measurement": "period for which solutions were stable", "setting": "[1]; stored in acetone at −20° C.", "result": "at least 2 month"},
      {"measurement": "cell killing", "setting": "[2]; 75 mJ/cm^2 light at 760±5 nm", "result": 50, "unit": "%"},
      {"measurement": "dose of light resulting in 50% cell killing", "setting": "[2]; light at 760±5 nm", "result": 75, "unit": "mJ/cm^2"},
      {"measurement": "light dose required for a similar degree (50%) of cell killing", "setting": "[3]", "result": 215, "unit": "mJ/cm^2"},
      {"measurement": "plasma lipoprotein binding, rank order of fractions", "setting": "[4]", "result": "HDL>LDL>>>Albumin"},
      {"measurement": "tumor growth as compared to controls", "setting": "[5]; 200 J/cm^2, 30 min and 4 h after injection", "result": "tumor growth decrease"},
      {"measurement": "duration of decrease of tumor index", "setting": "[5]; 200 J/cm^2, 1 h and 24 h after injection", "result": "up to 7 days"},
      {"measurement": "tumor growth as compared to controls", "setting": "[5]; 300 J/cm^2, 30 min and 24 h after injection", "result": "tumor growth decrease"},
      {"measurement": "duration of decrease of tumor index", "setting": "[5]; 300 J/cm^2, 1 h and 4 h after injection", "result": "up to 7 days"},
      {"measurement": "wavelength of maximum tumor growth decrease", "setting": "[5]; 300 J/cm^2, 1 h after injection", "result": 763, "unit": "nm"},
      {"measurement": "duration of tumor growth decrease as compared to controls", "setting": "[5]; 300 J/cm^2, 1 h after injection, 753 nm and 763 nm", "result": "up to 12 days"},
      {"measurement": "duration of tumor growth decrease as compared to controls", "setting": "[5]; 300 J/cm^2, 1 h after injection, 773 nm", "result": "up to 5 days"},
      {"measurement": "wavelength of maximum tumor growth decrease", "setting": "[5]; 300 J/cm^2, 24 h after injection", "result": 773, "unit": "nm"},
      {"measurement": "duration of tumor growth decrease as compared to controls", "setting": "[5]; 300 J/cm^2, 24 h after injection, 753 nm", "result": "up to 4 days"},
      {"measurement": "duration of tumor growth decrease as compared to controls", "setting": "[5]; 300 J/cm^2, 24 h after injection, 763 nm and 773 nm", "result": "up to 12 days"},
      {"measurement": "most efficient delay between injection and illumination", "setting": "[5]; 773 nm wavelength", "result": 24, "unit": "h"},
      {"measurement": "most efficient delay between injection and illumination", "setting": "[5]; at 764 nm", "result": "one hour"},
      {"measurement": "optimal wavelength of irradiation", "setting": "[5]; summary of the study", "result": 773, "unit": "nm"},
      {"measurement": "sensitivity of M2R cells relative to HT-29 cells", "setting": "M2R mouse melanoma cells", "result": "about 10 times"}
    ]}
  ]
}
